Test [1] relates to E. coli. The class given is cell-based, Escherichia coli (ATCC 35218). Here is the method: (§1) The polymers were initially tested to determine their antibacterial properties in the solution state. Antibacterial activities of the compounds were tested using the methods described above for both Gram-negative and Gram-positive bacterial strains.
(§2) The minimum inhibitory concentration (MIC) for each polymer was determined according to Clinical Laboratory Standards Institute (CLSI) broth microdilution protocols (M7-A6). The procedure explained previously was followed (Chongsiriwatana et al., supra); briefly, serial dilutions of the polymers were prepared in Mueller-Hinton broth (MHB) in 96-well microtiter plates and bacterial inoculum in MHB was added to each well (˜5.0×10^4 CFU/well). Optical density was monitored at 590 nm for 16 h at 35° C.

For a further test, the system named is B. subtilis. The class given is cell-based, Bacillus subtilis (ATCC 6633). As to conditions: 16 h. How it is done: as §1, §2
The test system of a further test is S. epidermidis. The class given is cell-based, Staphylococcus epidermidis RP62A (ATCC 12228). As to conditions: 16 h. Here is the method: as §1, §2
For a further test, the system named is P. aeruginosa. The class given is cell-based, Pseudomonas aeruginosa (ATCC 700829). As to conditions: 16 h. Here is the method: as §1, §2
The subject of test [2] is E. coli. The experiment in a line: Antibacterial activity on surfaces: bacterial adhesion and membrane permeation (FITC) on modified TiO2 slides. The class given is cell-based, Escherichia coli. As to conditions: for E. coli attachment to modified TiO2: 2 h exposure, compared with bare TiO2; for Percent FITC-stained bacteria: compared among surfaces. Here is the method:
Bacterial experiments on modified TiO2 slides were performed by exposing the surfaces to an E. coli suspension for two hours and then centrifuging to remove unattached and weakly attached bacteria. The bacteria remaining on the surfaces were imaged in phase contrast for determination of cell numbers, and in fluorescence after staining with FITC to detect cells with compromised membranes. From these images, total number of adherent bacteria (from phase contrast) and percent of attached cells with compromised membranes (from FITC staining) were determined and are shown in Table 3.
E. coli were streaked from frozen stocks onto Mueller-Hinton agar and incubated overnight at 37° C. A few colonies were then used to inoculate 25 ml of sterile Mueller-Hinton broth (MHB) and grown overnight at 37° C. TiO2-coated glass slides were modified with the polymers using the previously described procedure. Two-well chambers were clamped to the slides and sealed by injecting silastic resin, which was allowed to cure overnight. Slides were sterilized by exposure to UV light for 10 minutes. The bacterial suspension was concentrated by centrifugation and resuspended in PBS at a concentration of 5×10^7 CFU/ml; 2 ml of the E. coli suspension was added to each slide chamber. Slide chambers were covered and placed in a humidified incubator at 37° C.; after 2 h, nonadherent bacteria were removed by inverted centrifugation for 2 min at 30 rcf in sealed bags filled with PBS (Jensen et al., 2004). […] Slides were rinsed with PBS and imaged by confocal microscopy equipped with an inverted microscope (Leica TCS SP2). Phase contrast and fluorescent (488-nm band-pass filter for excitation of FITC) images were taken at identical locations to determine bacterial cell count and percent stained with FITC. The microscopy images were quantified using thresholding in ImageJ, and averages with standard deviations for at least nine images from one slide are reported. While slides were prepared in duplicate or triplicate and consistency was qualitatively confirmed between experimental samples, the reported counts and images were obtained from a single slide for each condition.

The subject of test [3] is E. coli, B. subtilis, S. epidermidis and P. aeruginosa. The experiment in a line: Antibacterial activity in solution (MIC), statements for all bacterial strains. The class given is cell-based. The note with it: for Antibacterial activity in solution: tested concentrations. Here is the method: as §1, §2

This is an account of results in patent US10676509B2, “Surface-immobilized antimicrobial peptoids” (Northwestern University, priority 2008, dated 2020).

Values after ≈ are worked out from the molar mass of the structure shown. Where two headings read alike, the source gives them in different places. Starred links: 1 amine or outer side, 2 acyl side, 3 side chain; linkers in the order of their positions; H or OH if unused. Non-standard residues stand in square brackets, D forms with d. Residues, ends and D or L forms follow the SMILES beside them. N(1S-Me-propyl)Gly = CC[C@H](C)NCC(=O)O; Dopa = N[C@@H](Cc1ccc(O)c(O)c1)C(=O)O; X1 = O=C(CN(CC(F)(F)F)[*:1])[*:2]; Nspe = C[C@H](NCC(=O)O)c1ccccc1; Nlys = NCCCCNCC(=O)O; Nme = COCCNCC(=O)O A value given as a limit tells only on which side of the number the result lay.

For `C[C@@H](c1ccccc1)N(CC(N)=O)C(=O)CN(C(=O)CN(CCCCN)C(=O)CN(C(=O)CN(C(=O)CN(CCCCN)C(=O)[C@@H]1CCCN1C(=O)CN(C(=O)CN(CCCCN)C(=O)CN(C(=O)CN(C(=O)CNCCCCN)[C@@H](C)c1ccccc1)[C@@H](C)c1ccccc1)[C@@H](C)c1ccccc1)[C@@H](C)c1ccccc1)[C@@H](C)c1ccccc1)[C@@H](C)c1ccccc1` [AMP, H-NLys-Nspe-Nspe-NLys-Nspe-Pro-[NLys-Nspe-Nspe]2—NH2] (H-[Nlys][Nspe][Nspe][Nlys][Nspe]P[Nlys][Nspe][Nspe][Nlys][Nspe][Nspe]-NH2), in the test with E. coli [1] (solution, MHB, 16 h at 35° C.), the “MIC E. coli” value was determined as 12.5 µM (≈ 21.9 µg/mL). The “MIC B. subtilis” value in the test with B. subtilis came out at 1.6 µM (≈ 2.81 µg/mL). In addition, the “MIC S. epidermidis” value in the test with S. epidermidis was determined as 1.6 µM (≈ 2.81 µg/mL). The “MIC P. aeruginosa” value with P. aeruginosa was found to be 25 µM (≈ 43.9 µg/mL).
Consider `COCCN(CC(=O)N(CCOC)CC(=O)N(CCOC)CC(=O)N(CCOC)CC(=O)N(CCOC)CC(=O)N(CCOC)CC(=O)N(CCOC)CC(=O)N(CCOC)CC(=O)N(CCOC)CC(=O)N(CCOC)CC(=O)N(CC(=O)N[C@@H](Cc1ccc(O)c(O)c1)C(=O)N[C@@H](CCCCN)C(=O)N[C@@H](Cc1ccc(O)c(O)c1)C(=O)N[C@@H](CCCCN)C(=O)N[C@@H](Cc1ccc(O)c(O)c1)C(N)=O)CC(F)(F)F)C(=O)CN(CCOC)C(=O)CN(CCOC)C(=O)CN(CCOC)C(=O)CN(CCOC)C(=O)CN(CCOC)C(=O)CN(CCOC)C(=O)CN(CCOC)C(=O)CN(CCOC)C(=O)CN(CCOC)C(=O)CN(CCOC)C(=O)CN(C(=O)CN(C(=O)CN(CCCCN)C(=O)CN(C(=O)CN(C(=O)CN(CCCCN)C(=O)[C@@H]1CCCN1C(=O)CN(C(=O)CN(CCCCN)C(=O)CN(C(=O)CN(C(=O)CNCCCCN)[C@@H](C)c1ccccc1)[C@@H](C)c1ccccc1)[C@@H](C)c1ccccc1)[C@@H](C)c1ccccc1)[C@@H](C)c1ccccc1)[C@@H](C)c1ccccc1)[C@@H](C)c1ccccc1` [PMP1-AMP] (H-[Nlys][Nspe][Nspe][Nlys][Nspe]P[Nlys][Nspe][Nspe][Nlys][Nspe][Nspe][Nme][Nme][Nme][Nme][Nme][Nme][Nme][Nme][Nme][Nme][Nme][Nme][Nme][Nme][Nme][Nme][Nme][Nme][Nme][Nme][X1][Dopa]K[Dopa]K[Dopa]-NH2), for which the “MIC E. coli” value in the test on E. coli [1] (16 h) came out at 50 µM (≈ 250 µg/mL). The “MIC B. subtilis” value in the test with B. subtilis was found to be 3.1 µM (≈ 15.5 µg/mL). In addition, in the test with S. epidermidis, the “MIC S. epidermidis” value worked out at 3.1 µM (≈ 15.5 µg/mL). Also, in the test on P. aeruginosa, the “MIC P. aeruginosa” value is 200 µM (≈ 998 µg/mL). Besides, the “E. coli attachment to modified TiO2” value in the test on E. coli [2] is “comparable to bare TiO2 surfaces”. In the test with E. coli [2] (adhered E. coli, 2 h), the “Total number of FITC-stained bacteria relative to PMP110 surfaces” value was “more than ten times greater”. The “Percent FITC-stained bacteria” value in the test with E. coli [2] (adhered E. coli) is recorded as “highest percentage of bacterial cells with compromised membranes”. In test [3], the “MIC relative to AMP alone (times greater)” value is listed as 2-4 times and the “Antibacterial activity in solution” value is given as “active against all bacterial strains”.
As to `CC[C@H](C)N(CC(=O)N(CCCCN)CC(=O)N(CC(=O)N(CC(=O)N(CCCCN)CC(=O)N(CC(=O)N(CC(=O)N(CCCCN)CC(=O)N(CC(=O)N(CC(=O)N(CCOC)CC(=O)N(CCOC)CC(=O)N(CCOC)CC(=O)N(CCOC)CC(=O)N(CCOC)CC(=O)N(CCOC)CC(=O)N(CCOC)CC(=O)N(CCOC)CC(=O)N(CCOC)CC(=O)N(CCOC)CC(=O)N(CCOC)CC(=O)N(CCOC)CC(=O)N(CCOC)CC(=O)N(CCOC)CC(=O)N(CCOC)CC(=O)N(CCOC)CC(=O)N(CCOC)CC(=O)N(CCOC)CC(=O)N(CCOC)CC(=O)N(CCOC)CC(=O)N(CC(=O)N[C@@H](Cc1ccc(O)c(O)c1)C(=O)N[C@@H](CCCCN)C(=O)N[C@@H](Cc1ccc(O)c(O)c1)C(=O)N[C@@H](CCCCN)C(=O)N[C@@H](Cc1ccc(O)c(O)c1)C(N)=O)CC(F)(F)F)[C@@H](C)CC)[C@@H](C)CC)[C@@H](C)CC)[C@@H](C)CC)[C@@H](C)CC)[C@@H](C)CC)C(=O)CN(C(=O)CNCCCCN)[C@@H](C)CC` [PMP1-C, reference compound] (H-[Nlys][N(1S-Me-propyl)Gly][N(1S-Me-propyl)Gly][Nlys][N(1S-Me-propyl)Gly][N(1S-Me-propyl)Gly][Nlys][N(1S-Me-propyl)Gly][N(1S-Me-propyl)Gly][Nlys][N(1S-Me-propyl)Gly][N(1S-Me-propyl)Gly][Nme][Nme][Nme][Nme][Nme][Nme][Nme][Nme][Nme][Nme][Nme][Nme][Nme][Nme][Nme][Nme][Nme][Nme][Nme][Nme][X1][Dopa]K[Dopa]K[Dopa]-NH2), the “MIC E. coli” value against E. coli [1] (16 h) was more than 100 µM. Further, the “MIC B. subtilis” value in the test on B. subtilis is more than 100 µM. The “MIC S. epidermidis” value in the test on S. epidermidis is more than 100 µM. The “MIC P. aeruginosa” value in the test with P. aeruginosa was more than 100 µM. Also, in the test on E. coli [2], the “E. coli attachment to modified TiO2” value is “much higher than PMP1-AMP and TiO2 surfaces”. Moreover, the “Percent FITC-stained bacteria” value with E. coli [2] (adhered E. coli) is “low and comparable to the control TiO2 substrates”. For the same compound, the “Antibacterial activity in solution” value in test [3] is on record as “not active at the tested concentrations”.
Take `CC[C@H](C)N(CC(N)=O)C(=O)CN(C(=O)CN(CCCCN)C(=O)CN(C(=O)CN(C(=O)CN(CCCCN)C(=O)CN(C(=O)CN(C(=O)CN(CCCCN)C(=O)CN(C(=O)CN(C(=O)CNCCCCN)[C@@H](C)CC)[C@@H](C)CC)[C@@H](C)CC)[C@@H](C)CC)[C@@H](C)CC)[C@@H](C)CC)[C@@H](C)CC` [Peptoid C, H-[NLys-Nssb-Nssb]4-NH2, reference compound] (H-[Nlys][N(1S-Me-propyl)Gly][N(1S-Me-propyl)Gly][Nlys][N(1S-Me-propyl)Gly][N(1S-Me-propyl)Gly][Nlys][N(1S-Me-propyl)Gly][N(1S-Me-propyl)Gly][Nlys][N(1S-Me-propyl)Gly][N(1S-Me-propyl)Gly]-NH2): in the test with E. coli [1] (16 h), the “MIC E. coli” value was more than 100 µM. In addition, the “MIC B. subtilis” value against B. subtilis is more than 100 µM. Also, the “MIC S. epidermidis” value in the test with S. epidermidis is more than 100 µM. In addition, the “MIC P. aeruginosa” value in the test on P. aeruginosa is more than 100 µM. Further, in test [3], the “Antibacterial activity in solution” value is reported as “not active at the tested concentrations”.
